# Assay results reported in article PMC10041525, “New Dual Inhibitors of Bacterial Topoisomerases with Broad-Spectrum Antibacterial Activity and In Vivo Efficacy against Vancomycin-Intermediate Staphylococcus aureus” (Journal of Medicinal Chemistry, 2023).
# Read-outs that look alike come from different tables or passages of the source.
# What was measured:
# [1] = tested on: Haemophilus influenzae (n = 14); experiment: MIC broth microdilution at IHMA Europe; type: cell-based, H. influenzae; conditions: Haemophilus influenzae, read-out: MIC
# [2] = tested on: E. faecium (n = 13); experiment: MIC broth microdilution at IHMA Europe; type: cell-based; conditions: Enterococcus faecium, read-out: MIC
# [3] = tested on: S. pneumoniae (n = 12); experiment: MIC broth microdilution at IHMA Europe; type: cell-based; conditions: for MIC: Streptococcus pneumoniae, read-out: MIC
# [4] = tested on: P. aeruginosa ATCC 27853; parameters: method as in earlier work; conditions: QC range for P. aeruginosa ATCC 27853, ref CLSI; cited from earlier work
# [5] = tested on: E. coli ATCC 25922; parameters: method as in earlier work; conditions: QC range for E. coli ATCC 25922, ref CLSI; cited from earlier work
# [6] = tested on: S. pneumoniae ATCC 49619; parameters: method as in earlier work; conditions: QC range for S. pneumoniae ATCC 49619, ref CLSI; cited from earlier work
# [7] = tested on: H. influenzae ATCC 49247; parameters: method as in earlier work; conditions: QC range for H. influenzae ATCC 49247, ref CLSI; cited from earlier work
smiles,measurement,setting,value
"C[C@H]1COc2c(N3CCN(C)CC3)c(F)cc3c(=O)c(C(=O)O)cn1c23.C[C@H]1COc2c(N3CCN(C)CC3)c(F)cc3c(=O)c(C(=O)O)cn1c23.O [Levofloxacin, levofloxacin]",MIC,[1]; H. influenzae IHMA N° 1227715,0.015 µg/mL
same,MIC,[1]; H. influenzae IHMA N° 1241620,≤ 0.004 µg/mL
same,MIC,[1]; H. influenzae IHMA N° 1244149,0.015 µg/mL
same,MIC,[1]; H. influenzae IHMA N° 1249803,0.015 µg/mL
same,MIC,[1]; H. influenzae IHMA N° 1254355,0.12 µg/mL
same,MIC,[1]; H. influenzae IHMA N° 1258580,0.015 µg/mL
same,MIC,[1]; H. influenzae IHMA N° 1262734,0.015 µg/mL
same,MIC,[1]; H. influenzae IHMA N° 1272723,0.015 µg/mL
same,MIC,[1]; H. influenzae IHMA N° 1286846,0.015 µg/mL
same,MIC,[1]; H. influenzae IHMA N° 1337530,0.015 µg/mL
same,MIC,[1]; H. influenzae IHMA N° 1440085,0.015 µg/mL
same,MIC,[1]; H. influenzae IHMA N° 1479509,0.0015 µg/mL
same,MIC,[1]; H. influenzae IHMA N° 1952952,0.015 µg/mL
same,MIC,[1]; H. influenzae IHMA N° 2047461,0.008 µg/mL
same,MIC,[2]; E. faecium IHMA N° 1764866,> 32 µg/mL
same,MIC,[2]; E. faecium IHMA N° 1765436,> 32 µg/mL
same,MIC,[2]; E. faecium IHMA N° 1765746,> 32 µg/mL
same,MIC,[2]; E. faecium IHMA N° 1893573,> 32 µg/mL
same,MIC,[2]; E. faecium IHMA N° 1893846,> 32 µg/mL
same,MIC,[2]; E. faecium IHMA N° 1893942,> 32 µg/mL
same,MIC,[2]; E. faecium IHMA N° 1894055,> 32 µg/mL
same,MIC,[2]; E. faecium IHMA N° 1897027,> 32 µg/mL
same,MIC,[2]; E. faecium IHMA N° 1897101,> 32 µg/mL
same,MIC,[2]; E. faecium IHMA N° 1904592,32 µg/mL
same,MIC,[2]; E. faecium IHMA N° 2075051,> 32 µg/mL
same,MIC,[2]; E. faecium IHMA N° 2077718,> 32 µg/mL
same,MIC,[2]; E. faecium IHMA N° 2083787,32 µg/mL
same,No. of isolates at MIC,[3]; MIC 0.5 µg/mL,5
same,MIC,[3]; S. pneumoniae IHMA N° 1775387,1 µg/mL
same,MIC,[3]; S. pneumoniae IHMA N° 1776057,0.5 µg/mL
same,MIC,[3]; S. pneumoniae IHMA N° 1785617,0.5 µg/mL
same,MIC,[3]; S. pneumoniae IHMA N° 1800765,1 µg/mL
same,MIC,[3]; S. pneumoniae IHMA N° 1811259,0.5 µg/mL
same,MIC,[3]; S. pneumoniae IHMA N° 1831562,1 µg/mL
same,MIC,[3]; S. pneumoniae IHMA N° 1902609,1 µg/mL
same,MIC,[3]; S. pneumoniae IHMA N° 1979675,0.5 µg/mL
same,MIC,[3]; S. pneumoniae IHMA N° 1991963,> 32 µg/mL
same,MIC,[3]; S. pneumoniae IHMA N° 2057487,1 µg/mL
same,MIC,[3]; S. pneumoniae IHMA N° 2073087,1 µg/mL
same,MIC,[3]; S. pneumoniae IHMA N° 2117109,0.5 µg/mL
same,"MIC, CLSI Range",[4],"0,5 - 4 µg/mL"
same,"MIC, CLSI Range",[5],"0,008 - 0,06 µg/mL"
same,"MIC, CLSI Range",[6],"0,5 - 2 µg/mL"
same,"MIC, CLSI Range",[7],"0,008 - 0,03 µg/mL"
